Results: patent US6262108A, “Medicinal use of cromoglycic acid compounds” (Kyoto Pharmaceutical Industries, Ltd., priority 1997, dated 2001)
Entries after “also recorded” stand apart in the source; their conditions may differ.

What was measured:
[1] = test system: collagen-induced arthritis in mice; assay: Collagen-induced arthritis in mice: arthritis score; type: in vivo, male DBA/1J mice; conditions: for Arthritis score: mean ± standard error (n = 8-10)
Description: (§1) According to the method of Courtenay et al. (Courtenay, J. S. et al.: Immunization against heterologous type II collagen induces arthritis in mice. Nature, 283:666, 1980), male DBA/1J mice (CHARLES RIVER JAPAN INC.) were sensitized with bovine type II collagen to induce collagen-induced arthritis (rheumatoid arthritis). After the onset of arthritis, diethyl acetoacetylcromoglycate was orally administered and its inhibitory effect was examined. The method is detailed in the following.
Male DBA/1J mice (8-week-old) were pre-bred for one week and divided into the following 3 groups based on body weight (8-10 per group).
Bovine type II collagen (2 mg) was dissolved in 0.01M acetic acid (1 ml) and suspended in an equivalent amount of Freund's complete adjuvant, and 0.1 ml thereof was intradermally injected to the control group and treated group at 9 weeks of age at the base of the tail, followed by the second injection three weeks later at 12 weeks of age.
Starting from day 31 after the initial injection of collagen till the end of the treatment, the mice of each group were scored (arthritis score) twice a week for the levels of redness, swelling and stiffness of four limbs by a blind test method. The scores were taken according to a method similar to the method of Bjork et al. (Bjork, J. and Kleinau, S.: Paradoxical effects of LS-2616 (Linomide) treatment in the type II collagen arthritis model in mice, Agents and Actions, 27:319-321, 1989.), wherein normal was rated 0 point, inflammation on one digit was 1 point, inflammation on two or more digits and normal metacarpal region and metatarsal region of the limbs, or inflammation on one digit and metacarpal region and metatarsal region of the limbs was 2 points, and inflammation on digits and metacarpal region and metatarsal region of the limbs was 3 points, each mouse scoring 0 to 12 points in total.
The treatment was continued for 6 weeks from day 41 from the initial injection of collagen. […]

[2] = test system: anti-bovine type II collagen antibody; assay: Anti-bovine type II collagen antibody titer in blood (ELISA) in collagen-induced arthritis mice; type: in vivo, male DBA/1J mice; conditions: 100 mg/kg/day orally
Description: as §1
Male DBA/1J mice (8-week-old) were pre-bred for one week and divided into the following 3 groups based on body weight (8-10 per group). […]
At day 42 after the initiation of treatment, blood was taken from carotid artery and the mice were exsanguinated to death under ether anesthesia. The anti-bovine type II collagen antibody titer in blood was determined by the ELISA method according to the method of Stuart et al. (Stuart, J. M. et al.: Nature and specificity of the immune response to collagen in type II collagen-induced arthritis in mice, J. Clin. Invest., 69:673-683, 1982).

[3] = test system: Type IV allergic dermatitis; assay: Type IV allergic dermatitis (picryl chloride) auricle swelling; type: in vivo, male ICR mice
Procedure: Male 6-week-old ICR mice (Clea Japan, Inc.) were divided into two groups of control group and administration group containing 8-9 mice each. A 0.5% methylcellulose solution (10 ml/kg) was forcefully administered orally to the control group and diethyl acetoacetylcromoglycate (100 mg/kg) was forcefully administered orally to the administration group twice a day for 14 days for each group. After the initial administration at day 8 of the administration, pentobarbital sodium (55 mg/kg) was intraperitoneally administered to each mouse and the abdomen was shaved. 5% Picryl chloride (50 μl) dissolved in acetone-olive oil (mixing ratio, 1:4) was applied to the shaved portion (diameter about 2 cm). After the initial administration at day 5 after the application (day 12 of administration), all mice were anesthetized with ether and the thickness of both auricles was measured with a dial thickness gauge (Mitutoyo Co.). […] After 48 hours from this antigen challenge, the thickness of both auricles was measured with a dial thickness gauge under ether anesthesia.
The difference between the thickness of the auricle applied with the solvent and the thickness of the auricle applied with the antigen was measured for each mouse.

[4] = test system: type I and type IV allergic dermatitis; assay: Type I and Type IV allergic dermatitis (repeat application of DNFB) auricle swelling; type: in vivo, male BALB/c mice; conditions: 100 mg/kg orally twice a day; for Increase in thickness of auricle by repeat application of 0.2% DNFB solution: mean ± standard error
Description: According to the method of Nagai et al., (Naoki Inagaki and Hiroichi Nagai, The 8th Spring Meeting of Japanese Society of Allergology, 1996), the inhibitory action of diethyl acetoacetylcromoglycate on type I and type IV allergic dermatitis was examined.
According to this method, a type I allergic reaction is induced in addition to a type IV allergic reaction due to repeat contact sensitization with antigen. […] The method is described in detail in the following.
Male 6-week-old BALB/c mice (Japan SLC, Inc.) were divided into two groups of control group and administration group including 10 mice each. A 0.5% methylcellulose solution (10 ml/kg) was forcefully administered orally to the control group and diethyl acetoacetylcromoglycate (100 mg/kg) was forcefully administered orally to the administration group twice a day for 36 days for each group. The thickness of both auricles of each mouse was measured with a dial thickness gauge (Mitutoyo Co.) under ether anesthesia before initial administration on day 1 after administration. After the initial administration on day 8 of the administration, the thickness of both auricles of each mouse was measured with a dial thickness gauge under ether anesthesia. 0.2% Dinitrofluorobenzene (DNFB) dissolved in acetone-olive oil (mixing ratio 3:1) was applied by 25 μl to the left and right auricles. After 24 hours from the application, the thickness of both auricles of each mouse was measured under ether anesthesia with a dial thickness gauge. Thereafter, similar manipulation was repeated 4 times at a week interval. At the 5th application, the thickness of both auricles was also measured at 1 and 4 hours after the application.
Changes in the thickness of both auricles of each mouse were calculated from the measurement values of the thickness of the both auricles before the initial application. The average of changes in the thickness of the left and right auricles of each mouse was taken as the variation of the mouse.

## CCOC(=O)c1cc(=O)c2c(OCC(COc3cccc4oc(C(=O)OCC)cc(=O)c34)OC(=O)CC(C)=O)cccc2o1 [Example 1, Diethyl Acetoacetylcromoglycate]
[1]; 100 mg/kg/day orally, day 38 after start of treatment, U-test with control group
  effect on arthritis score (in words): inhibition of the symptoms of collagen-induced arthritis (rheumatoid arthritis); also recorded: significant improvement in the arthritis scores
[1]; 100 mg/kg/day orally, day 79 after initial injection of collagen (day 38 after starting treatment), control 10.70 ± 0.49, p < 0.01
  Arthritis score: 6.36 ± 1.30
[1]; day 38 after initial injection of collagen (3 days before treatment)
  Arthritis score: 1.80 ± 0.61
[2]; day 42 after initiation of treatment, ANOVA with control group
  effect on anti-bovine type II collagen antibody titer in blood (in words): significant decrease in anti-bovine type II collagen antibody titer in blood; also recorded: inhibition of an increase in the anti-bovine collagen antibody titer in blood
[2]; day 83 after initial injection of collagen (day 42 after starting treatment), mean ± standard error (n = 8-10), control 0.301 ± 0.005, p < 0.01
  Anti-bovine type II collagen antibody titer in blood: 0.203 ± 0.010
[3]; 100 mg/kg orally twice a day for 14 days, 48 hr after applying 0.5% picryl chloride solution, mean ± standard error (n = 8-9), control 0.045 ± 0.003, p < 0.01
  Increase in thickness of auricle after application of antigen: 0.031 ± 0.003 mm
[3]; 100 mg/kg orally twice a day, 48 hours after picryl chloride challenge, t-test with control group
  effect on swelling of the auricle (in words): significant inhibitory action on the swelling of the auricle
[4]; 1 hr after 5th application (type I allergic reaction), control 0.098 ± 0.012, p < 0.05
  Increase in thickness of auricle by repeat application of 0.2% DNFB solution: 0.058 ± 0.007 mm
[4]; 4 hr after 5th application, control 0.063 ± 0.007
  Increase in thickness of auricle by repeat application of 0.2% DNFB solution: 0.056 ± 0.007 mm
[4]; 24 hr after 1st application, control 0.011 ± 0.002
  Increase in thickness of auricle by repeat application of 0.2% DNFB solution: 0.012 ± 0.002 mm
[4]; 24 hr after 2nd application, control 0.048 ± 0.004, p < 0.05
  Increase in thickness of auricle by repeat application of 0.2% DNFB solution: 0.037 ± 0.003 mm
[4]; 24 hr after 3rd application, control 0.092 ± 0.009, p < 0.01
  Increase in thickness of auricle by repeat application of 0.2% DNFB solution: 0.061 ± 0.005 mm
[4]; 24 hr after 4th application, control 0.141 ± 0.012, p < 0.01
  Increase in thickness of auricle by repeat application of 0.2% DNFB solution: 0.095 ± 0.009 mm
[4]; 24 hr after 5th application, control 0.182 ± 0.015, p < 0.01
  Increase in thickness of auricle by repeat application of 0.2% DNFB solution: 0.122 ± 0.010 mm
[4]; after the second application of DNFB, t-test with control group
  effect on swelling of the auricle (in words): significant inhibitory action on the swelling of the auricle after the second application
[4]; before 1st application, control 0.008 ± 0.003
  Increase in thickness of auricle by repeat application of 0.2% DNFB solution: 0.008 ± 0.002 mm
[4]; before 2nd application, control 0.033 ± 0.003
  Increase in thickness of auricle by repeat application of 0.2% DNFB solution: 0.029 ± 0.003 mm
[4]; before 3rd application, control 0.042 ± 0.005
  Increase in thickness of auricle by repeat application of 0.2% DNFB solution: 0.035 ± 0.003 mm
[4]; before 4th application, control 0.049 ± 0.004
  Increase in thickness of auricle by repeat application of 0.2% DNFB solution: 0.040 ± 0.005 mm
[4]; before 5th application, control 0.059 ± 0.006
  Increase in thickness of auricle by repeat application of 0.2% DNFB solution: 0.048 ± 0.005 mm
[4]; one hour after the fifth application of DNFB
  effect on swelling of the auricle, type I allergic reaction (in words): significant inhibitory action on the swelling of the auricle
